Laboratory results from PubChem BioAssay AID256 (DTP/NCI, 2004).
Values joined by “and” are separate entries in the source; they are usually repeats but may differ in a detail not shown here. Identical values can stand only once. Toxic doses and inconclusive results are not listed.

System: CD2F1 mice, L1210 leukemia ip, survival T/C
Assay: NCI In Vivo Anticancer Drug Screen. Data for tumor model L1210 Leukemia (intraperitoneal) in CD2F1 (CDF1) mice
Conditions: higher = longer survival
Procedure, shortened: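 In this screen, transplantable tumors were grown in mice given either the compound or its vehicle. Results were expressed as the treated measurement relative to the control measurement.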

[1] = endpoint: mean survival time, dose: 12.5 mg/kg/injection, schedule: Q01DX005 (ip), vehicle: water
[2] = endpoint: mean survival time, dose: 200.0 mg/kg/injection, schedule: Q01DX005 (ip), vehicle: water

O=P1(N(CCCl)CCCl)NCCCO1 (stereo unspecified)
T/C (endpoint: mean survival time, dose: 10.0 mg/kg/injection, schedule: Q01DX009 (ip), vehicle: saline): 124 % of control
T/C [1]: 120 % of control and 122 % of control
T/C (endpoint: mean survival time, dose: 12.5 mg/kg/injection, schedule: Q01DX009 (ip), vehicle: saline): 114 % of control and 123 % of control
T/C (endpoint: mean survival time, dose: 20.0 mg/kg/injection, schedule: Q01DX009 (ip), vehicle: saline): 122 % of control
T/C (endpoint: mean survival time, dose: 20.0 mg/kg/injection, schedule: Q03DX003 (ip), vehicle: saline): 124 % of control
T/C (endpoint: mean survival time, dose: 20.0 mg/kg/injection, schedule: Q04DX003 (ip), vehicle: saline): 114 % of control and 115 % of control
T/C (endpoint: mean survival time, dose: 25.0 mg/kg/injection, schedule: Q01DX001 (ip), vehicle: DMSO): 115 % of control
T/C (endpoint: mean survival time, dose: 30.0 mg/kg/injection, schedule: Q04DX003 (ip), vehicle: water): 113 % of control
T/C (endpoint: mean survival time, dose: 31.3 mg/kg/injection, schedule: Q01DX001 (ip), vehicle: DMSO): 114 % of control
T/C (endpoint: mean survival time, dose: 31.3 mg/kg/injection, schedule: Q01DX001 (ip), vehicle: saline): 113 % of control
T/C (endpoint: mean survival time, dose: 38.9 mg/kg/injection, schedule: Q01DX001 (ip), vehicle: water): 119 % of control
T/C (endpoint: mean survival time, dose: 40.0 mg/kg/injection, schedule: Q01DX007 (ip), vehicle: saline): 163 % of control
T/C (endpoint: mean survival time, dose: 40.0 mg/kg/injection, schedule: Q01DX009 (ip), vehicle: saline): 170 % of control
T/C (endpoint: mean survival time, dose: 40.0 mg/kg/injection, schedule: Q03DX003 (ip), vehicle: saline): 151 % of control
T/C (endpoint: mean survival time, dose: 40.0 mg/kg/injection, schedule: Q04DX003 (ip), vehicle: saline): 155 % of control
T/C (endpoint: mean survival time, dose: 50.0 mg/kg/injection, schedule: Q01DX001 (ip), vehicle: DMSO): 117 % of control
T/C (endpoint: mean survival time, dose: 50.0 mg/kg/injection, schedule: Q01DX001 (ip), vehicle: Klucel (hydroxypropylcellulose) (HPC)): 113 % of control
T/C (endpoint: mean survival time, dose: 50.0 mg/kg/injection, schedule: Q01DX001 (ip), vehicle: other): 115 % of control
T/C (endpoint: mean survival time, dose: 50.0 mg/kg/injection, schedule: Q01DX009 (ip), vehicle: saline): 165 % of control and 173 % of control
T/C (endpoint: mean survival time, dose: 62.5 mg/kg/injection, schedule: Q01DX001 (ip), vehicle: Klucel (hydroxypropylcellulose) (HPC)): 122 % of control
T/C (endpoint: mean survival time, dose: 62.5 mg/kg/injection, schedule: Q01DX001 (ip), vehicle: saline with Tween-80): 124 % of control
T/C (endpoint: mean survival time, dose: 62.5 mg/kg/injection, schedule: Q01DX001 (ip), vehicle: water): 121 % of control and 122 % of control
T/C (endpoint: mean survival time, dose: 80.0 mg/kg/injection, schedule: Q03DX003 (ip), vehicle: saline): 192 % of control
T/C (endpoint: mean survival time, dose: 80.0 mg/kg/injection, schedule: Q04DX003 (ip), vehicle: saline): 187 % of control
T/C (endpoint: mean survival time, dose: 100.0 mg/kg/injection, schedule: Q01DX001 (ip), vehicle: DMSO): 158 % of control
T/C (endpoint: mean survival time, dose: 108.0 mg/kg/injection, schedule: Q01DX001 (ip), vehicle: saline): 164 % of control
T/C (endpoint: mean survival time, dose: 108.0 mg/kg/injection, schedule: Q01DX001 (ip), vehicle: water): 169 % of control
T/C (endpoint: mean survival time, dose: 125.0 mg/kg/injection, schedule: Q01DX001 (ip), vehicle: Klucel (hydroxypropylcellulose) (HPC)): 170 % of control
T/C (endpoint: mean survival time, dose: 125.0 mg/kg/injection, schedule: Q01DX001 (ip), vehicle: saline with Tween-80): 150 % of control and 159 % of control
T/C (endpoint: mean survival time, dose: 125.0 mg/kg/injection, schedule: Q01DX001 (ip), vehicle: water): 156 % of control and 173 % of control
T/C (endpoint: mean survival time, dose: 133.0 mg/kg/injection, schedule: Q01DX001 (ip), vehicle: saline): 167 % of control
T/C (endpoint: mean survival time, dose: 135.0 mg/kg/injection, schedule: Q01DX001 (ip), vehicle: saline): 158 % of control and 171 % of control
T/C (endpoint: mean survival time, dose: 150.0 mg/kg/injection, schedule: Q01DX001 (ip), vehicle: water): 172 % of control
T/C (endpoint: mean survival time, dose: 160.0 mg/kg/injection, schedule: Q01DX009 (ip), vehicle: saline): 124 % of control
T/C (endpoint: mean survival time, dose: 180.0 mg/kg/injection, schedule: Q01DX001 (ip), vehicle: water): 176 % of control
T/C (endpoint: mean survival time, dose: 196.0 mg/kg/injection, schedule: Q01DX001 (ip), vehicle: saline): 201 % of control
T/C (endpoint: mean survival time, dose: 200.0 mg/kg/injection, schedule: Q01DX001 (ip), vehicle: Klucel (hydroxypropylcellulose) (HPC)): 164 % of control and 198 % of control
T/C (endpoint: mean survival time, dose: 200.0 mg/kg/injection, schedule: Q01DX001 (ip), vehicle: other): 189 % of control
T/C [2]: 191 % of control
T/C (endpoint: mean survival time, dose: 200.0 mg/kg/injection, schedule: Q04DX003 (ip), vehicle: saline): 205 % of control
T/C (endpoint: mean survival time, dose: 250.0 mg/kg/injection, schedule: Q01DX001 (ip), vehicle: saline with Tween-80): 190 % of control
T/C (endpoint: mean survival time, dose: 250.0 mg/kg/injection, schedule: Q01DX001 (ip), vehicle: water): 188 % of control and 261 % of control and 280 % of control
T/C (endpoint: mean survival time, dose: 320.0 mg/kg/injection, schedule: Q04DX003 (ip), vehicle: saline): 117 % of control
T/C (endpoint: mean survival time, dose: 400.0 mg/kg/injection, schedule: Q01DX001 (ip), vehicle: Klucel (hydroxypropylcellulose) (HPC)): 187 % of control
T/C (endpoint: mean survival time, dose: 400.0 mg/kg/injection, schedule: Q01DX001 (ip), vehicle: other): 183 % of control
T/C (endpoint: mean survival time, dose: 450.0 mg/kg/injection, schedule: Q01DX001 (ip), vehicle: saline): 209 % of control
T/C (endpoint: mean survival time, dose: 500.0 mg/kg/injection, schedule: Q01DX001 (ip), vehicle: Klucel (hydroxypropylcellulose) (HPC)): 173 % of control
T/C (endpoint: mean survival time, dose: 500.0 mg/kg/injection, schedule: Q01DX001 (ip), vehicle: saline with Tween-80): 197 % of control
T/C (endpoint: mean survival time, dose: 500.0 mg/kg/injection, schedule: Q01DX001 (ip), vehicle: water): 253 % of control and 223 % of control and 271 % of control
T/C (endpoint: median survival time, dose: 12.5 mg/kg/injection, schedule: Q01DX009 (ip), vehicle: saline): 120 % of control and 122 % of control
T/C (endpoint: median survival time, dose: 20.0 mg/kg/injection, schedule: Q01DX009 (ip), vehicle: water): 121 % of control
T/C (endpoint: median survival time, dose: 25.0 mg/kg/injection, schedule: Q01DX001 (ip), vehicle: saline): 117 % of control and 118 % of control
T/C (endpoint: median survival time, dose: 25.0 mg/kg/injection, schedule: Q01DX001 (ip), vehicle: water): 113 % of control
T/C (endpoint: median survival time, dose: 31.25 mg/kg/injection, schedule: Q01DX001 (ip), vehicle: water): 116 % of control and 119 % of control (2×)
T/C (endpoint: median survival time, dose: 40.0 mg/kg/injection, schedule: Q01DX009 (ip), vehicle: water): 153 % of control
T/C (endpoint: median survival time, dose: 50.0 mg/kg/injection, schedule: Q01DX005 (ip), vehicle: saline): 169 % of control
T/C (endpoint: median survival time, dose: 50.0 mg/kg/injection, schedule: Q01DX009 (ip), vehicle: saline): 178 % of control and 182 % of control
T/C (endpoint: median survival time, dose: 50.0 mg/kg/injection, schedule: Q03DX003 (ip), vehicle: saline): 162 % of control
T/C (endpoint: median survival time, dose: 62.5 mg/kg/injection, schedule: Q01DX001 (ip), vehicle: water): 151 % of control
T/C (endpoint: median survival time, dose: 66.0 mg/kg/injection, schedule: Q07DX003 (sc), vehicle: saline): 155 % of control and 162 % of control
T/C (endpoint: median survival time, dose: 100.0 mg/kg/injection, schedule: Q01DX001 (ip), vehicle: water): 155 % of control and 160 % of control
T/C (endpoint: median survival time, dose: 100.0 mg/kg/injection, schedule: Q01DX009 (ip), vehicle: saline): 114 % of control
T/C (endpoint: median survival time, dose: 100.0 mg/kg/injection, schedule: Q03DX003 (ip), vehicle: saline): 202 % of control
T/C (endpoint: median survival time, dose: 108.0 mg/kg/injection, schedule: Q01DX001 (iv), vehicle: saline): 171 % of control
T/C (endpoint: median survival time, dose: 125.0 mg/kg/injection, schedule: Q01DX001 (ip), vehicle: water): 183 % of control
T/C (endpoint: median survival time, dose: 150.0 mg/kg/injection, schedule: Q01DX001 (ip), vehicle: saline): 169 % of control
T/C (endpoint: median survival time, dose: 250.0 mg/kg/injection, schedule: Q01DX001 (ip), vehicle: water): 173 % of control
T/C (endpoint: median survival time, dose: 330.0 mg/kg/injection, schedule: Q07DX003 (ip), vehicle: saline): 210 % of control
T/C (endpoint: median survival time, dose: 450.0 mg/kg/injection, schedule: Q01DX001 (ip), vehicle: saline): 154 % of control

C=Cn1cnc2c(N)ncnc21 (tested in a mixture with another compound)
T/C [1]: 101 % of control
T/C (endpoint: mean survival time, dose: 25.0 mg/kg/injection, schedule: Q01DX005 (ip), vehicle: water): 104 % of control
T/C (endpoint: mean survival time, dose: 50.0 mg/kg/injection, schedule: Q01DX005 (ip), vehicle: water): 101 % of control
T/C (endpoint: mean survival time, dose: 100.0 mg/kg/injection, schedule: Q01DX005 (ip), vehicle: water): 101 % of control
T/C [2]: 104 % of control

C(CC1CO1)C1CO1 (stereo unspecified)
T/C (endpoint: mean survival time, dose: 2.5 mg/kg/injection, schedule: Q01DX009 (ip), vehicle: Klucel (hydroxypropylcellulose) (HPC)): 98 % of control and 104 % of control
T/C (endpoint: mean survival time, dose: 5.0 mg/kg/injection, schedule: Q01DX009 (ip), vehicle: Klucel (hydroxypropylcellulose) (HPC)): 98 % of control and 104 % of control
T/C (endpoint: mean survival time, dose: 10.0 mg/kg/injection, schedule: Q01DX009 (ip), vehicle: Klucel (hydroxypropylcellulose) (HPC)): 92 % of control and 96 % of control
T/C (endpoint: mean survival time, dose: 20.0 mg/kg/injection, schedule: Q01DX009 (ip), vehicle: Klucel (hydroxypropylcellulose) (HPC)): 98 % of control and 104 % of control
T/C (endpoint: mean survival time, dose: 40.0 mg/kg/injection, schedule: Q01DX009 (ip), vehicle: Klucel (hydroxypropylcellulose) (HPC)): 95 % of control and 98 % of control
T/C (endpoint: mean survival time, dose: 49.5 mg/kg/injection, schedule: Q01DX009 (ip), vehicle: Klucel (hydroxypropylcellulose) (HPC)): 122 % of control
T/C (endpoint: mean survival time, dose: 80.0 mg/kg/injection, schedule: Q01DX009 (ip), vehicle: Klucel (hydroxypropylcellulose) (HPC)): 96 % of control and 98 % of control
